Source: patent US9919998B2, “Antibacterial agents: Nα-aroyl-N-aryl-phenylalaninamides” (priority 2014, dated 2018)
Converted amounts (≈) assume the structure as drawn.

Key:
Type in all cases: cell-based
[1] = test system: Mycobacterium tuberculosis H37Rv; assay: Microplate Alamar Blue assay (MABA) MIC, M. tuberculosis; conditions: read-out: MIC Mycobacterium tuberculosis H37Rv
From the text: (§1) Minimal inhibitory concentrations (MICs) in Mycobacterium tuberculosis H37Rv and Mycobacterium avium ATCC 25291 were quantified using microplate Alamar Blue assays as described (MABA; [Collins, L. & Franzblau, S. (1997) Microplate Alamar Blue assay versus BACTEC 460 system for high-throughput screening of compounds against Mycobacterium tuberculosis and Mycobacterium avium. Antimicrob. Agents Chemother. 41, 1004-1009]).

[2] = test system: Mycobacterium avium ATCC 25291; assay: Microplate Alamar Blue assay (MABA) MIC, M. avium; conditions: ATCC25291, M. avium ATCC 25291
From the text: as §1

[3] = test system: Mycobacterium smegmatis ATCC 19420; assay: Broth microdilution MIC, M. smegmatis; conditions: Mycolicibacterium smegmatis, ATCC19420, M. smegmatis ATCC 19420; read-out: MIC Mycobacterium smegmatis ATCC 19420
From the text: MICs in Mycobacterium smegmatis ATCC 19420 and Mycobacterium smegmatis ATCC 19420 derivatives were quantified using broth microdilution assays as described [Clinical and Laboratory Standards Institute (CLSI/NCCLS) (2009) Methods for Dilution Antimicrobial Susceptibility Tests for Bacteria That Grow Aerobically; Approved Standard, Eighth Edition. CLIS Document M07-A8 (CLIS, Wayne Pa.)].

[4] = test system: Vero E6 ATCC CRL1586 cells; assay: Mammalian-cell cytotoxicity, minimal cytotoxic concentration (CellTiter96)
Description: Minimal cytotoxic concentrations (MCCs) against mammalian cells in culture were determined using Vero E6 ATCC CRL1586 cells and the CellTiter96 assay kit (Promega, Inc.). […]

Compound | MIC [1] [µg/mL] | MIC [2] [µg/mL] | MIC [3] [µg/mL] | MCC mammalian cells Vero E6 ATCC CRL1586 [4] [µg/mL]
O=C(NC(Cc1ccccc1)C(=O)Nc1cccc2ccncc12)c1ccccc1 (centres unmarked) [IX-15, N-(1-(isoquinolin-8-ylamino)-1-oxo-3-phenylpropan-2-yl)benzamide] | 6.25 (≈ 15.8 µM) | 25 (≈ 63.2 µM) | 0.78 (≈ 1.97 µM) | 85
O=C(NC(Cc1ccc(O)cc1)C(=O)Nc1cccc2ccncc12)c1ccccc1 (centres unmarked) [IX-18, N-(3-(4-hydroxyphenyl)-1-(isoquinolin-8-ylamino)-1-oxopropan-2-yl)benzamide] | 6.25 (≈ 15.2 µM) | 12.5 (≈ 30.4 µM) | 0.39 (≈ 0.948 µM) | >100
O=C(NC(Cc1ccc(O)cc1)C(=O)Nc1cccc2c1OCCO2)c1ccccc1 (centres unmarked) [IX-21, N-(1-((2,3-dihydrobenzo[b][1,4]dioxin-5-yl)amino)-3-(4-hydroxyphenyl)-1-oxopropan-2-yl)benzamide] | 6.25 (≈ 14.9 µM) | 6.25 (≈ 14.9 µM) | 0.78 (≈ 1.86 µM) | >100
COc1ccccc1NC(=O)C(Cc1ccc(O)cc1)NC(=O)c1ccccc1 (centres unmarked) [IX-26, N-(3-(4-hydroxyphenyl)-1-((2-methoxyphenyl)amino)-1-oxopropan-2-yl)benzamide] | 25 (≈ 64 µM) | 50 (≈ 128 µM) | 1.25 (≈ 3.2 µM) | >100
Cc1ccccc1NC(=O)C(Cc1ccc(O)cc1)NC(=O)c1cccs1 (centres unmarked) [IX-28, N-(3-(4-hydroxyphenyl)-1-oxo-1-(o-tolylamino)propan-2-yl)thiophene-2-carboxamide] | 12.5 (≈ 32.9 µM) | 12.5 (≈ 32.9 µM) | 0.39 (≈ 1.03 µM) | 80
COc1ccccc1NC(=O)C(Cc1ccccc1)NC(=O)c1cccs1 (centres unmarked) [IX-29, N-(1-((2-methoxyphenyl)amino)-1-oxo-3-phenylpropan-2-yl)thiophene-2-carboxamide] | 3.12 (≈ 8.21 µM) | 6.25 (≈ 16.4 µM) | 0.195 (≈ 0.513 µM) | >100
O=C(NC(Cc1ccccc1)C(=O)Nc1cccc2cnccc12)c1cccs1 (centres unmarked) [IX-30, N-(1-(isoquinolin-5-ylamino)-1-oxo-3-phenylpropan-2-yl)thiophene-2-carboxamide] | 3.12 (≈ 7.78 µM) | 6.25 (≈ 15.6 µM) | 0.195 (≈ 0.486 µM) | 37
O=C(NC(Cc1ccccc1)C(=O)Nc1cccc2c1OCCO2)c1cccs1 (centres unmarked) [IX-31, N-(1-((2,3-dihydrobenzo[b][1,4]dioxin-5-yl)amino)-1-oxo-3-phenylpropan-2-yl)thiophene-2-carboxamide] | 3.12 (≈ 7.65 µM) | 3.12 (≈ 7.65 µM) | 0.195 (≈ 0.477 µM) | 30
COc1ccccc1NC(=O)C(Cc1ccc(O)cc1)NC(=O)c1cccs1 (centres unmarked) [IX-32, N-(3-(4-hydroxyphenyl)-1-((2-methoxyphenyl)amino)-1-oxopropan-2-yl)thiophene-2-carboxamide] | 12.5 (≈ 31.5 µM) | 6.25 (≈ 15.8 µM) | 0.195 (≈ 0.492 µM) | 100
O=C(NC(Cc1ccc(O)cc1)C(=O)Nc1cccc2cnccc12)c1cccs1 (centres unmarked) [IX-33, N-(3-(4-hydroxyphenyl)-1-(isoquinolin-5-ylamino)-1-oxopropan-2-yl)thiophene-2-carboxamide] | 12.5 (≈ 29.9 µM) | 6.25 (≈ 15 µM) | 0.195 (≈ 0.467 µM) | 80
O=C(NC(Cc1ccc(O)cc1)C(=O)Nc1cccc2c1OCCO2)c1cccs1 (centres unmarked) [IX-34, N-(1-((2,3-dihydrobenzo[b][1,4]dioxin-5-yl)amino)-3-(4-hydroxyphenyl)-1-oxopropan-2-yl)thiophene-2-carboxamide] | 6.25 (≈ 14.7 µM) | 3.12 (≈ 7.36 µM) | 0.39 (≈ 0.919 µM) | 85
COc1ncccc1NC(=O)C(Cc1ccccc1)NC(=O)c1ccccc1 (centres unmarked) [IX-38, N-(1-((2-methoxypyridin-3-yl)amino)-1-oxo-3-phenylpropan-2-yl)benzamide] | 6.25 (≈ 16.6 µM) | 6.25 (≈ 16.6 µM) | 0.39 (≈ 1.04 µM) | 38
O=C(NC(Cc1ccccc1)C(=O)Nc1cccc2cn[nH]c12)c1ccccc1 (centres unmarked) [IX-39, N-(1-((1H-indazol-7-yl)amino)-1-oxo-3-phenylpropan-2-yl)benzamide] | > 50 | > 50 | 1.56 (≈ 4.06 µM) | 20
O=C(NC(Cc1ccc(O)cc1)C(=O)Nc1cccc2cc[nH]c12)c1ccccc1 (centres unmarked) [IX-40, N-(1-((1H-indol-7-yl)amino)-3-(4-hydroxyphenyl)-1-oxopropan-2-yl)benzamide] | 12.5 (≈ 31.3 µM) | 12.5 (≈ 31.3 µM) | 0.39 (≈ 0.976 µM) | 78
O=C(NC(Cc1ccccc1)C(=O)Nc1cccc2cc[nH]c12)c1cccs1 (centres unmarked) [IX-41, N-(1-((1H-indol-7-yl)amino)-1-oxo-3-phenylpropan-2-yl)thiophene-2-carboxamide] | 12.5 (≈ 32.1 µM) | 12.5 (≈ 32.1 µM) | 0.39 (≈ 1 µM) | 48
COc1ccccc1NC(=O)C(Cc1ccccc1)NC(=O)c1cccc2[nH]ccc12 (centres unmarked) [IX-43, N-(1-((2-methoxyphenyl)amino)-1-oxo-3-phenylpropan-2-yl)-1H-indole-4-carboxamide] | 6.25 (≈ 15.1 µM) | 12.5 (≈ 30.2 µM) | 0.39 (≈ 0.943 µM) | 59
O=C(NC(Cc1ccccc1)C(=O)Nc1cccc2cnccc12)c1cccc2[nH]ccc12 (centres unmarked) [IX-44, N-(1-(isoquinolin-5-ylamino)-1-oxo-3-phenylpropan-2-yl)-1H-indole-4-carboxamide] | 1.56 (≈ 3.59 µM) | 3.12 (≈ 7.19 µM) | 0.195 (≈ 0.449 µM) | 70
